Structures are written as SMILES.

In general, melting point refers to the temperature, or range, at which the solid turns liquid. As for `Cc1cc(SCc2ccc3sc(-c4ccc(C(F)(F)F)cc4)nc3c2)ccc1CCC(=O)O` [Example 52, 3-{2-Methyl-4-[2-(4-trifluoromethylphenyl)benzothiazol-5-ylmethylsulfanyl]phenyl}propionic Acid], the melting point lay in the range of 141 to 143 °C.
The value for `Cc1cc(SCc2cccc3nc(-c4ccc(C(F)(F)F)cc4)oc23)ccc1OCC(=O)O` [Example 68, 2-Methyl-4-[2-(4-trifluoromethylphenyl)-benzooxazol-7-ylmethylsulfanyl]-phenoxyacetic Acid] was 180 to 182 °C.
As for `Cc1cc(SCc2ccc3nc(-c4ccc(C(F)(F)F)cc4)sc3c2)ccc1OCC(=O)O` [Example 57, 2-Methyl-4-[2-(4-trifluoromethylphenyl)benzothiazol-6-ylmethylsulfanyl]phenoxyacetic Acid], the figure is 176 to 177 °C.
As for `Cc1cc(SCc2ccc3sc(-c4ccc(C(F)(F)F)cc4)nc3c2)ccc1OCC(=O)O` [Example 51, 2-Methyl-4-[2-(4-trifluoromethylphenyl)benzothiazol-5-ylmethylsulfanyl]phenoxyacetic Acid], the figure is 138 to 140 °C.
The compound `Cc1cc(SC(C)(C)c2cccc3nc(-c4ccc(C(F)(F)F)cc4)oc23)ccc1CCC(=O)O` [Example 76, 3-(2-Methyl-4-{1-methyl-1-[2-(4-trifluoromethylphenyl)benzooxazol-7-yl]ethylsulfanyl}phenyl)propionic Acid] displayed a melting point of 104 to 107 °C.
The value for `Cc1cc(SCc2ccc3nc(-c4ccc(C(F)(F)F)cc4)sc3c2)ccc1CCC(=O)O` [Example 58, 3-{2-Methyl-4-[2-(4-trifluoromethylphenyl)benzothiazol-6-ylmethylsulfanyl]phenyl}propionic Acid] was 194 to 196 °C.
The compound `CCc1cc(SCCc2cccc3sc(-c4ccc(C(F)(F)F)cc4)nc23)ccc1OCC(=O)O` [Example 50, 2-Ethyl-4-{2-[2-(4-trifluoromethylphenyl)benzothiazol-4-yl]ethylsulfanyl}phenoxyacetic Acid] came in with a melting point of 84 to 86 °C.
The value for `Cc1cc(SCc2ccnc3oc(-c4ccc(C(F)(F)F)cc4)nc23)ccc1CCC(=O)O` [Example 96, 3-{2-Methyl-4-[2-(4-trifluoromethylphenyl)oxazolo[5,4-b]pyridin-7-ylmethylsulfanyl]phenyl}propionic Acid] was > 260 °C (dec.).
In the case of `O=C(O)Cc1csc2cc(SCc3cccc4nc(-c5ccc(C(F)(F)F)cc5)oc34)ccc12` [Example 71, 6-[2-(4-Trifluoromethylphenyl)benzooxazol-7-ylmethylsulfanyl]benzo[b]thiophen-3-ylacetic Acid], the melting point lay in the range of 208 to 210 °C.
As for `CCC(Sc1ccc(CCC(=O)O)c(C)c1)c1ccc2nc(-c3ccc(C(F)(F)F)cc3)sc2c1` (racemic) [Example 64, (+/−)-3-(2-Methyl-4-{1-[2-(4-trifluoromethylphenyl)benzothiazol-6-yl]propylsulfanyl}phenyl)propionic Acid], the figure is 105 to 108 °C; as for `CCc1cc(SCc2cccc3[nH]c(-c4ccc(C(F)(F)F)cc4)nc23)ccc1OCC(=O)O` [Example 87, 2-Ethyl-4-[2-(4-trifluoromethylphenyl)-1H-benzoimidazol-4-ylmethylsulfanyl]phenoxyacetic Acid], 223 °C (dec.); as for `Cc1cc(SCc2ccnc3sc(-c4ccc(C(F)(F)F)cc4)nc23)ccc1CCC(=O)O` [Example 101, 3-{2-Methyl-4-[2-(4-trifluoromethylphenyl)thiazolo[5,4-b]pyridin-7-ylmethylsulfanyl]phenyl}propionic Acid], 65 to 70 °C.
As for `CC(C)(Sc1ccc2c(CC(=O)O)csc2c1)c1cccc2nc(-c3ccc(C(F)(F)F)cc3)oc12` [Example 78, 6-{1-Methyl-1-[2-(4-trifluoromethylphenyl)benzooxazol-7-yl]ethylsulfanyl}benzo[b]thiophen-3-ylacetic Acid], the figure is 110 to 113 °C; as for `Cc1cc(SCc2ccnc3oc(-c4ccc(C(F)(F)F)cc4)nc23)ccc1OCC(=O)O` [Example 95, 2-Methyl-4-[2-(4-trifluoromethylphenyl)oxazolo[5,4-b]pyridine-7-ylmethylsulfanyl]phenoxyacetic Acid], 154 to 157 °C; as for `O=C(O)Cc1cccc(SCc2cccc3nc(-c4ccc(C(F)(F)F)cc4)oc23)c1` [Example 73, 3-[2-(4-Trifluoromethylphenyl)benzooxazol-7-ylmethylsulfanyl]phenylacetic Acid], 147 to 149 °C.
Take `CCc1cc(SCc2ccnc3c2nc(-c2ccc(C(F)(F)F)cc2)n3C)ccc1OCC(=O)O` [Example 109, 2-Ethyl-4-[3-methyl-2-(4-trifluoromethylphenyl)-3H-imidazo[4,5-b]pyridin-7-ylmethylsulfanyl]phenoxyacetic Acid]: the melting point lay within 118 to 120 °C.
With `Cc1cc(SCc2cccc3nc(-c4ccc(C(F)(F)F)cc4)sc23)ccc1CCC(=O)O` [Example 46, 3-{2-Methyl-4-[2-(4-trifluoromethylphenyl)benzothiazol-7-ylmethylsulfanyl]phenyl}propionic Acid], the melting point is 136 to 139 °C.
As for `Cc1cc(OC(C)c2cccc3nc(-c4ccc(C(F)(F)F)cc4)oc23)ccc1CCC(=O)O` (racemic) [Example 83, (+/−)-3-(2-Methyl-4-{1-[2-(4-trifluoromethylphenyl)benzooxazol-7-yl]ethoxy}phenyl)propionic Acid], the figure is 142 to 144 °C; as for `Cc1cc(OCc2ccc3sc(-c4ccc(C(F)(F)F)cc4)nc3c2)ccc1CCC(=O)O` [Example 54, 3-{2-Methyl-4-[2-(4-trifluoromethylphenyl)benzothiazol-5-ylmethoxy]phenyl}propionic Acid], 174 to 176 °C.
On to `O=C(O)Cc1cccc(SCc2ccnc3[nH]c(-c4ccc(C(F)(F)F)cc4)nc23)c1` [Example 107], for which the melting point lay in the range of 213 to 215 °C.
As for `Cc1cc(SCc2cccc3[nH]c(-c4ccc(C(F)(F)F)cc4)nc23)ccc1CCC(=O)O` [Example 86, 3-{2-Methyl-4-[2-(4-trifluoromethylphenyl)-1H-benzoimidazol-4-ylmethylsulfanyl]phenyl}propionic Acid], the figure is 214 to 216 °C.
The compound `Cc1cc(SCCc2cccc3sc(-c4ccc(C(F)(F)F)cc4)nc23)ccc1OCC(=O)O` [Example 48, 2-Methyl-4-{2-[2-(4-trifluoromethylphenyl)benzothiazol-4-yl]ethylsulfanyl}phenoxyacetic Acid] came in with a melting point of 97 to 100 °C.
The value for `Cc1cc(SCc2ccnc3c2nc(-c2ccc(C(F)(F)F)cc2)n3C)ccc1CCC(=O)O` [Example 108, 3-{2-Methyl-4-[3-methyl-2-(4-trifluoromethylphenyl)-3H-imidazo[4,5-b]pyridin-7-ylmethylsulfanyl]phenyl}propionic Acid] was 89 to 91 °C; that for `O=C(O)Cc1csc2cc(OCc3cccc4sc(-c5ccc(C(F)(F)F)cc5)nc34)ccc12` [Example 42, 6-[2-(4-Trifluoromethylphenyl)benzothiazol-4-ylmethoxy]benzo[b]thiophen-3-ylacetic Acid] was 185 to 190 °C; that for `CCc1cc(SCc2ccnc3sc(-c4ccc(C(F)(F)F)cc4)nc23)ccc1OCC(=O)O` [Example 102, 2-Ethyl-4-[2-(4-trifluoromethylphenyl)thiazolo[5,4-b]pyridin-7-ylmethylsulfanyl]phenoxyacetic Acid] was 176 to 178 °C.
As for `Cc1cc(SCc2cccc3c2nc(-c2ccc(C(F)(F)F)cc2)n3C)ccc1OCC(=O)O` [Example 89, 2-Methyl-4-[1-methyl-2-(4-trifluoromethylphenyl)-1H-benzoimidazol-4-ylmethylsulfanyl]phenoxyacetic Acid], the figure is 192 to 194 °C; as for `CC(Sc1ccc2c(CC(=O)O)csc2c1)c1cccc2nc(-c3ccc(C(F)(F)F)cc3)oc12` (racemic) [Example 82, (+/−)-6-{1-[2-(4-Trifluoromethylphenyl)benzooxazol-7-yl]ethylsulfanyl}benzo[b]thiophen-3-ylacetic Acid], 195 to 198 °C.
As for `Cc1cc(SC(C)c2ccc3nc(-c4ccc(C(F)(F)F)cc4)sc3c2)ccc1CCC(=O)O` (racemic) [Example 63, (+/−)-3-(2-Methyl-4-{1-[2-(4-trifluoromethylphenyl)benzothiazol-6-yl]ethylsulfanyl}phenyl)propionic Acid], the figure is 159 to 161 °C.
`Cc1cc(SCc2cccc3c2nc(-c2ccc(C(F)(F)F)cc2)n3C)ccc1CCC(=O)O` [Example 90, 3-{2-Methyl-4-[1-methyl-2-(4-trifluoromethylphenyl)-1H-benzoimidazol-4-ylmethylsulfanyl]phenyl}propionic Acid] registered a melting point of 168 to 170 °C.
As for `CCc1cc(SC(C)c2cccc3nc(-c4ccc(C(F)(F)F)cc4)oc23)ccc1OCC(=O)O` (racemic) [Example 81, (+/−)-2-Ethyl-4-{1-[2-(4-trifluoromethylphenyl)benzooxazol-7-yl]ethylsulfanyl}phenoxyacetic Acid], the figure is 172 to 175 °C; as for `Cc1cc(SCc2cccc3nc(-c4ccc(C(F)(F)F)cc4)oc23)ccc1CCC(=O)O` [Example 69, 3-{2-Methyl-4-[2-(4-trifluoromethylphenyl)benzooxazol-7-ylmethylsulfanyl]phenyl}propionic Acid], 155 to 157 °C; as for `Cc1cc(SCc2cccc3oc(-c4ccc(C(F)(F)F)cc4)nc23)ccc1OCC(=O)O` [Example 65, 2-Methyl-4-[2-(4-trifluoromethylphenyl)benzooxazol-4-ylmethylsulfanyl]-phenoxyacetic Acid], 160 to 162 °C (dec.).
The value for `Cc1cc(SC(C)c2ccc3nc(-c4ccc(C(F)(F)F)cc4)sc3c2)ccc1OCC(=O)O` (racemic) [Example 62, (+/−)-2-Methyl-4-{1-[2-(4-trifluoromethylphenyl)benzothiazol-6-yl]ethylsulfanyl}phenoxyacetic Acid] was 170 to 173 °C; that for `Cc1cc(SCc2cccc3nc(-c4ccc(C(F)(F)F)cc4)oc23)ccc1OCC(=O)O` [Example 74, 2-Methyl-4-[2-(4-trifluoromethylphenyl)benzooxazol-7-ylmethylsulfanyl]phenoxyacetic Acid] was 172 to 174 °C.

Values taken from patent US7384965B2, “Fused heterocyclic derivatives as PPAR modulators” (Eli Lilly and Company, priority 2003, dated 2008).
